Patent US6864363B2 (priority 2000, dated 2005)
“And” between values parts separate entries of the source, which are not always exact repeats. Identical values can stand only once. Square brackets hold non-standard residues; d marks the D form. Peptide text beside a SMILES is read from it. * marks the point of attachment. Sta = CC(C)C[C@H](N)[C@@H](O)CC(=O)O; Isovaleryl = CC(C)CC(=O)*

B1: α1-antichymotrypsin: human plasma inhibitor (protein)
chain: HPNSPLDEENLTQENQDRGTHVDLGLASANVDFAFSLYKQLVLKAPDKNVIFSPLSISTALAFLSLGAHNTTLTEILKGLKFNLTETSEAEIHQSFQHLLRTLNQSSDELQLSMGNAMFVKEQLSLLDRFTEDAKRLYGSEAFATDFQDSAAAKKLINDYVKNGTRGKITDLIKDLDSQTMMVLVNYIFFKAKWEMPFDPQDTHQSRFYLSKKKWVMVPMMSLHHLTIPYFRDEELSCTVVELKYTGNASALFILPDQDKMEEVEAMLLPETLKRWRDSLEFREIGELYLPKFSISRDYNLNDILLQLGIEEAFTSKADLSGITGARNLAVSQVVHKAVLDVFEEGTEASAATAVKITLLSALVETRTIVRFNRPFLMIIVPTDTQNIFFMSKVTNPKQA
B2: DPP-7: P. gingivalis dipeptidylpeptidase-7, a 76 kDa serine protease purified from the membrane fraction (protein, listed as Porphyromonas gingivalis)
chain: MQMKLKSILLGAALLLGASGVAKADKGMWLLNELNQENLDRMRELGFTLPLDSLYSFDKPSIANAVVIFGGGCTGITVSDQGLIFTNHHCGYGAIQSQSTVDHDYLRDGFVSRTMGEELPIPGLSVKYLRKIVKVTDKVEGQLKGITDEMERLRKAQEVCQELAKKENADENQLCIVEPFYSNNEYFLIVYDVFKDVRMVFAPPSSVGKFGGDTDNWMWPRHTGDFSVFRVYAGADNRPAEYSKDNKPYKPVYFAAVSMQGYKADDYAMTIGFPGSTDRYLTSWGVEDRIENENNPRIEVRGIKQGIWKEAMSADQATRIKYASKYAQSANYWKNSIGMNRGLARLDVIGRKRAEERAFADWIRKNGKSAVYGDVLSSLEKAYKEGAKANREMTYLSETLFGGTEVVRFAQFANALATNPDAHAGILKSLDDKYKDYLPSLDRKVLPAMLDIVRRRIPADKLPDIFKNVIDKKFKGDTKKYADFVFDKSVVPYSDKFHAMLKSMDKEKFAKAIEKDPAVELSKSVIAAARAIQADAMANAYAIEKGKRLFFAGLREMYPGRALPSDANFTMRMSYGSIKGYEPQDGAWYNYHTTGKGVLEKQDPKSDEFAVQENILDLFRTKNYGRYAENGQLHIAFLSNNDITGGNSGSPVFDKNGRLIGLAFDGNWEAMSGDIEFEPDLQRTISVDIRYVLFMIDKWGQCPRLIQELKLI

test system: P. gingivalis DPP-7; assay: not given; assay type: biochemical, Porphyromonas gingivalis; settings: not given

| Molecule | inactivation of / influence on DPP-7 activity (in words) | % of residual activity |
| --- | --- | --- |
| α1-proteinase inhibitor: human plasma inhibitor | did not effect enzyme activity | – |
| Aprotinin | – | 128% |
| CC(C)CC(=O)N[C@H](C(=O)N[C@H](C(=O)N[C@@H](CC(C)C)[C@@H](O)CC(=O)N[C@@H](C)C(=O)N[C@@H](CC(C)C)[C@@H](O)CC(=O)O)C(C)C)C(C)C [Pepstatin] (Isovaleryl-VV[Sta]A[Sta]-OH) | – | 127% |
| O=C(O)CN(CCN(CC(=O)O)CC(=O)O)CC(=O)O [EDTA] | did not influence its activity | 90% |
| C[C@H](NC(=O)CN)C(=O)O [Gly-Ala] (H-Gly-Ala-OH) | – | 102% |
| NC(N)=NCCC[C@H](N)C(=O)NCC(=O)O [Arg-Gly] (H-Arg-Gly-OH) | – | 84% |
| c1cnc2c(c1)ccc1cccnc12 [1,10-orthophenanthroline] | did not influence its activity | 98% |
| Triton X-100 | not sensitive to inactivation | 144% and 103% and 94% |
| NCCCC[C@H](N)C(=O)NCC(=O)O [Lys-Gly] (H-Lys-Gly-OH) | – | 96% |
| CCCCCCCCCCCCOS(=O)(=O)[O-].[Na+] [SDS] | not sensitive to inactivation | – |
| Cl.NCCc1ccc(S(=O)(=O)F)cc1 [PEFABLOCK, 4-(2-aminoethyl)-benzenesulfonyl fluoride hydrochloride] | inactivated | 1% |
| CC(=O)N[C@@H](CC(C)C)C(=O)N[C@@H](CC(C)C)C(=O)N[C@H](C=O)CCCNC(=N)N [Leupeptin] | – | 107% |
| α2-macroglobulin: human plasma inhibitor | did not effect enzyme activity | – |
| NC(N)=NCCC[C@H](N)C(=O)N[C@@H](Cc1ccccc1)C(=O)O [Arg-Phe] | – | 69% |
| B1 | did not effect enzyme activity | – |

test system: P. gingivalis DPP-7; assay: Endopeptidase activity of DPP-7 on protein substrates and plasma inhibitors; assay type: biochemical, Porphyromonas gingivalis; settings: not given

| Molecule | endopeptidase activity of DPP-7 on protein substrate |
| --- | --- |
| insulin β chain | did not show any endopeptidase activity |
| gelatin | did not show any endopeptidase activity |

test system: not listed separately; assay: pH optimum and stability of purified DPP-7 (activity against H-Ala-Phe-pNA); assay type: biochemical, Porphyromonas gingivalis; settings: not given
Procedure: Kinetic Analysis—Routinely, the dipeptidylpeptidase amidolytic activity was measured with H-Ala-Phe-pNA (1 mM) in 0.2 M HEPES, pH 7.8 at 37° C. The reaction was followed for specific time intervals in a thermostated ELISA reader (SpectraMax, Applied Biosystem) and the release of p-nitroaniline was monitored at 405 nm. Other p-nitroanilide substrates were used in the same manner. For inhibition studies, the enzyme was first preincubated with an inhibitor for 15 minutes at 37° C., substrate added, and residual activity recorded. The initial steady-state velocity (v0) was determined by continuous assay for the range of substrate concentrations (100 nM to 1 mM). Km and Vmax were determined by hyperbolic regression of the kinetic data using the software package Hyper Version 1.02 obtained from Dr. J. S. Easterby (University of Liverpool, UK).
pH Optimum and Stability—Purified DPP-7 was active against H-Ala-Phe-pNA over a broad pH range, from neutral to basic pH (6.5-9.0) (FIG. 3). This activity also changed with the ionic strength of the buffer, reaching 200% at 0.5 M NaCl concentration in 100 mM HEPES, pH 8.0. DPP-7 was stable in 0.2 M HEPES, pH 8.0, for one week at 4° C. […] After 3 hours incubation at either room temperature or 37° C., activity was reduced to 62% and 20%, respectively. The optimum temperature for the hydrolysis of H-Ala-Phe-pNA was determined to be 43° C.

| Molecule | optimum temperature for the hydrolysis of H-Ala-Phe-pNA [°C] |
| --- | --- |
| B2 | 43 |

same assay, conditions: 0.2 M HEPES, pH 8.0, one week at 4° C.

| Molecule | stability |
| --- | --- |
| B2 | stable |

same assay, conditions: 0.5 M NaCl in 100 mM HEPES, pH 8.0

| Molecule | activity with ionic strength of the buffer [%] |
| --- | --- |
| B2 | 200 |

same assay, conditions: 3 hours at 37° C.

| Molecule | activity remaining after incubation [%] |
| --- | --- |
| B2 | 20 |

same assay, conditions: 3 hours at room temperature

| Molecule | activity remaining after incubation [%] |
| --- | --- |
| B2 | 62 |

same assay, conditions: kept frozen at −80° C. for one month

| Molecule | stability, loss of activity |
| --- | --- |
| B2 | no appreciable loss of activity |
